Measurements published in patent US10378021B2, “Plant CO2 sensors, nucleic acids encoding them, and methods for making and using them” (The Regents of the University of California, priority 2007, dated 2019).

How the values were obtained:
[1] = test system: ca1ca4 leaf epidermis stomata; assay: abscisic acid-induced stomatal closing in leaf epidermis; format: cell-based, Arabidopsis thaliana
Procedure: FIG. 10A illustrates stomata in ca1ca4 double mutant leaves close in response to abscisic acid; n=3 experiments, 30 stomata/experiment and condition. Error bars depict means±s.e.m. FIG. 10B illustrates CO2-induced stomatal movements are impaired in ca1ca4 double mutant leaves and in wild-type leaf epidermis treated with the carbonic anhydrase inhibitor 6-ethoxy-2-benzothiazolesulphonamide (EZA) (n=6, 30 stomata/sample); see e.g., Becker et al., 2007.
To determine whether the impaired CO2 responses in intact leaves (see FIG. 9C, FIG. 9D, FIG. 9E) are linked to stomatal movements, CO2 responses were analyzed in leaf epidermis. CO2-induced stomatal movements were impaired in ca1ca4 as compared to wild-type, as illustrated in FIG. 10B. Furthermore, when wild-type leaf epidermis were treated for 30 min with the membrane-permeable CA inhibitor EZA (see, e.g., Becker et al., 2007), CO2-induced stomatal opening and closing were inhibited, which correlates with a role for carbonic anhydrases in CO2 sensing, rather than a long-term developmental effect of CA gene disruption on the rapid CO2 response, as illustrated in FIG. 10B.

[2] = test system: wild-type Arabidopsis thaliana plants; assay: Norflurazon bleaching of leaves and CO2-induced stomatal movements in albino leaves; format: in vivo
Procedure: To further analyze whether intact photosynthesis is required for CO2 regulation of stomatal movements, another approach was carried out.
FIG. 13A illustrates an image of chlorophyll-deficient albino wild-type leaves devoid of functional chloroplasts were generated by application of the carotenoid biosynthesis inhibitor norflurazon. The absence of chlorophyll in albino guard cells compared to wild-type was visualized by confocal microscopy (FIG. 13B graphically illustrates data) and quantified by image analysis of the chlorophyll fluorescence intensity (FIG. 13C graphically illustrates data) (n=3, 12 stomata/sample.). FIG. 13D graphically illustrates data showing CO2-induced stomatal movements in albino versus control plant leaves (n=7, 50 stomata/sample). Error bars depict means±s.e.m.

[3] = test system: wild-type leaf epidermis stomata; assay: CO2-induced stomatal movements in leaf epidermis treated with carbonic anhydrase inhibitor; format: cell-based, Arabidopsis thaliana; settings: wild-type leaf epidermis treated for 30 min
[4] = test system: Arabidopsis guard cells; settings: loaded into Arabidopsis guard cells; cited from earlier work

With `CC1=CC(=O)CC(C)(C)[C@@]1(O)/C=C/C(C)=C\C(=O)O` [abscisic acid] the ABA-induced stomatal closing [1] was “completely functional”.
With `CNc1cnn(-c2cccc(C(F)(F)F)c2)c(=O)c1Cl` [Norflurazon] the “stomatal CO2 response to both high and low [CO2] in intact leaves” value ([2]; albino leaves without functional chloroplasts) was “not affected” and the “leaf phenotype of newly emerging leaves” value ([2]; watering 3 to 4 week-old wild-type plants) was “albino chlorophyll-deficient wild-type leaves devoid of functional chloroplasts”.
With `CCOc1ccc2nc(S(N)(=O)=O)sc2c1` [EZA, 6-ethoxy-2-benzothiazolesulphonamide] the “CO2-induced stomatal opening and closing” value [3] was “inhibited”.
In the case of `O=C(O)CN(CC(=O)O)c1ccccc1OCCOc1ccccc1N(CC(=O)O)CC(=O)O` [BAPTA], the “spontaneous calcium transients in guard cells” value [4] is listed as “effectively inhibits”.
